In US10780091B2, “TLR7 agonist maleate salt, crystalline forms C, D and E thereof, preparation methods and uses of maleate salt and crystalline forms” (CHIA TAI TIANQING PHARMACEUTICAL GROUP CO., LTD., priority 2016, dated 2020):

Assay: Stability tests of the crystal forms (high temperature, high humidity, light)
Format: physicochemical
Settings: general statement; tests at 60° C., 40° C./75% humidity, 5000 Lx described but data not given
Protocol: The crystal forms prepared in Examples 1-3 were tested in the accelerated test under high temperature conditions for stability in accordance with Guidelines for the Stability Test of Pharmaceutical Ingredients and Pharmaceutical Preparations (Chinese Pharmacopoeia 2010 Appendix XIXC).
The crystal forms C, D and E prepared in Examples 1-3 were placed in an open-clean container at 60° C., respectively. The samples were taken for test on day 10, day 20 and day 30, respectively. The results were compared with the initial test result on day 0.
The crystal forms prepared in Examples 1-3 were tested in the accelerated test under high humidity conditions for stability in accordance with Guidelines for the Stability Test of Pharmaceutical Ingredients and Pharmaceutical Preparations (Chinese Pharmacopoeia 2010 Appendix XIXC).
The crystal forms C, D and E prepared in Examples 1-3 were subjected to an accelerated test in a constant temperature and humidity vessel under the conditions of 40° C./75% humidity (open). The samples were taken for test on day 30, day 60 and day 90, respectively. The results were compared with the initial test result on day 0. […]

In the case of `CCCCOc1nc(N)c2[nH]cc(Cc3ccc(CN4CCCC4)cc3)c2n1.O=C(O)/C=C\C(=O)O` [crystal form C, Maleate of 2-butoxy-7-(4-(pyrrolidin-1-ylmethyl)benzyl)-5H-pyrrolo[3,2-d]pyrimidin-4-amine], the “stability of the crystal form” value is reported as “good stability”.
